{
  "source": "patent US20250170126A1",
  "about": "(MITSUBISHI TANABE PHARMA CORPORATION, priority 2022, published 2025)",
  "data": [
    {"biological_target": "Human B0AT1 (Homo sapiens (Human), UniProt Q695T7)", "sequence (Q695T7 whole entry)": "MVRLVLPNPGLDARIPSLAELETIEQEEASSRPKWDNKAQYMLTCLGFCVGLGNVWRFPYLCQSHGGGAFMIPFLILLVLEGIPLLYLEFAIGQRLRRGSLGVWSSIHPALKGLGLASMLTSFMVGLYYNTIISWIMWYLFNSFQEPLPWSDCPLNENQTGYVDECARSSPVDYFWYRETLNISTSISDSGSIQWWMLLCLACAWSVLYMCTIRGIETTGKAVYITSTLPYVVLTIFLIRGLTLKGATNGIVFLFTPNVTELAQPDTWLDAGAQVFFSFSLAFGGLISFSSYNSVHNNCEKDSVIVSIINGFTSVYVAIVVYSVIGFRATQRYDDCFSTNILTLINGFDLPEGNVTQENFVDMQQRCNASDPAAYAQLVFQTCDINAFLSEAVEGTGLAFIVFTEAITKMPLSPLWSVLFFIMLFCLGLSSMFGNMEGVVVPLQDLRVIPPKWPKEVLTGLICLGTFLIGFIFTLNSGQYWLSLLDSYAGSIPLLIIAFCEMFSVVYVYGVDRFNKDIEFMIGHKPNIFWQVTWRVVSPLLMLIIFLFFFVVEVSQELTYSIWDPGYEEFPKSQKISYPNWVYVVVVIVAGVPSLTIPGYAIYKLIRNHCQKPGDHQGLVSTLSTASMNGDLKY", "assay": "hB0AT1 inhibitory test (phenylalanine uptake)", "assay_type": "cell-based", "conditions": "Human B0AT1 stable expression CHO cells; [3H]-L-phenylalanine uptake, phenylalanine 0.25 mM", "method": "A test compound dissolved in dimethyl sulfoxide (DMSO) was added to a 96 well plate for solid phase radioactivity measurement containing a scintillator at the bottom of the well (final concentration of DMSO 0.5%). DMSO alone as a control and DMSO containing N-(4-bromophenyl)-3,5-dichloro-2-hydroxybenzamide (final concentration […]) for the is measurement of B0AT1 non-specific uptake were similarly added at 0.5 μL per well. Human B0AT1 stable expression CHO cells suspended in a buffer (buffer containing 96 mM sodium chloride, 2 mM potassium chloride, 1.8 mM calcium chloride, 1 mM magnesium chloride, 0.01% bovine serum albumin, and 10 mM 2-[4-(2-hydroxyethyl)-1-piperazinyl]ethanesulfonic acid) were added by 90 μL to 75000 cells/well. After standing at ordinary temperature for 30 min or longer, the cells were subjected to a phenylalanine uptake experiment. A buffer containing L-phenylalanine and [3,4,5-3H]-L-phenylalanine was added by 10 μL per well (final concentration of phenylalanine 0.25 mM), and the radioactivity of the plate bottom surface at ordinary temperature was measured with a scintillation counter over time, and the radioactivity value after 100 to 200 min was analyzed. A value obtained by subtracting the B0AT1 non-specific uptake from the control uptake was taken as 100%, and the concentration necessary for each test compound to achieve 50% inhibition (IC50 value) was determined by nonlinear regression using a logistic model.", "units": {"IC50": "nM"}, "values": [
      {"smiles": "CC(=O)N[C@H]1CCN(C(=O)CNC(=O)/C=C/c2ccc(C(F)(F)F)cc2)C1", "note": "[I-143, (E)-N-[2-[(3S)-3-acetamidopyrrolidin-1-yl]-2-oxoethyl]-3-[4-(trifluoromethyl)phenyl]prop-2-enamide]", "IC50": 550},
      {"smiles": "O=C(/C=C/c1ccc(C(F)(F)F)cc1)NCC(=O)N1CCc2c(ccc(C(=O)O)c2F)C1", "note": "[I-261, 5-fluoro-2-[2-[[(E)-3-[4-(trifluoromethyl)phenyl]prop-2-enoyl]amino]acetyl]-3,4-dihydro-1H-isoquinoline-6-carboxylic acid]", "IC50": 223},
      {"smiles": "O=C(/C=C/c1ccc(S(F)(F)(F)(F)F)cc1)NCC(=O)N1CCc2cc(C(=O)O)ccc2C1", "note": "[I-276, 2-[2-[[(E)-3-[4-(pentafluoro-A6-sulfanyl)phenyl]prop-2-enoyl]amino]acetyl]-3,4-dihydro-1H-isoquinoline-6-carboxylic acid]", "IC50": 87},
      {"smiles": "O=C(/C=C/c1ccc(C(F)(F)F)cc1)NCC(=O)N1CC(=O)NC(c2ccccc2)C1", "note": "(stereo not shown) [I-12, (E)-N-[2-oxo-2-(3-oxo-5-phenylpiperazin-1-yl)ethyl]-3-[4-(trifluoromethyl)phenyl]prop-2-enamide]", "IC50": 163},
      {"smiles": "COCCN(Cc1cnccn1)C(=O)CNC(=O)/C=C/c1ccc(C(F)(F)F)cc1", "note": "[I-175]", "IC50": 71},
      {"smiles": "CNC(=O)[C@H]1C[C@H](n2cccn2)CN1C(=O)CNC(=O)/C=C/c1ccc(C(F)(F)F)cc1", "note": "[I-215]", "IC50": 473},
      {"smiles": "COCCN(Cc1cc(C)n(C)n1)C(=O)CNC(=O)/C=C/c1ccc(C(F)(F)F)cc1", "note": "[I-58]", "IC50": 353},
      {"smiles": "O=C(/C=C/c1ccc(C(F)(F)F)cc1)NCC(=O)N1CNC(=O)C1", "note": "[I-31]", "IC50": 106},
      {"smiles": "O=C(/C=C/c1ccc(C(F)(F)F)cc1)NCC(=O)N1CCc2nc[nH]c2C1", "note": "[I-75]", "IC50": 99},
      {"smiles": "CN1CCN(C(=O)CNC(=O)/C=C/c2ccc(C(F)(F)F)cc2)CC1", "note": "[I-2]", "IC50": 53},
      {"smiles": "O=C(/C=C/c1ccc(C(F)(F)F)cc1)NCC(=O)N1Cc2ccnn2C[C@@H]1C(=O)O", "note": "[I-283, (6R)-5-[2-[[(E)-3-[4-(trifluoromethyl)phenyl]prop-2-enoyl]amino]acetyl]-6,7-dihydro-4H-pyrazolo[1,5-a]pyrazine-6-carboxylic acid]", "IC50": 361},
      {"smiles": "C[C@H]1Cn2nccc2CN1C(=O)CNC(=O)/C=C/c1ccc(C(F)(F)F)cc1", "note": "[I-181]", "IC50": 60},
      {"smiles": "COc1nccc2c1CCN(C(=O)CNC(=O)/C=C/c1ccc(C(F)(F)F)cc1)C2", "note": "[I-90]", "IC50": 23},
      {"smiles": "O=C(/C=C/c1ccc(C(F)(F)F)cc1)NCC(=O)N1CCn2ncc(Cl)c2C1", "note": "[I-202]", "IC50": 22},
      {"smiles": "O=C(/C=C/c1ccc(C(F)(F)F)cc1)NCC(=O)N1Cc2cncnc2C1", "note": "[I-68]", "IC50": 58},
      {"smiles": "COCCN(CC(=O)N(C)C)C(=O)CNC(=O)/C=C/c1ccc(C(F)(F)F)cc1", "note": "[I-149, (E)-N-[2-[[2-(dimethylamino)-2-oxoethyl]-(2-methoxyethyl)amino]-2-oxoethyl]-3-[4-(trifluoromethyl)phenyl]prop-2-enamide]", "IC50": 170},
      {"smiles": "COCCN(Cc1noc(C)n1)C(=O)CNC(=O)/C=C/c1ccc(C(F)(F)F)cc1", "note": "[I-52]", "IC50": 56},
      {"smiles": "CN(C)C(=O)c1cnn2c1CN(C(=O)CNC(=O)/C=C/c1ccc(C(F)(F)F)cc1)CC2", "note": "[I-226]", "IC50": 67},
      {"smiles": "O=C(/C=C/c1ccc(C(F)(F)F)cc1)NCC(=O)N1CCc2cc(C(=O)O)ccc2C1", "note": "[I-277]", "IC50": 143},
      {"smiles": "COCCN(Cc1ccncn1)C(=O)CNC(=O)/C=C/c1ccc(C(F)(F)F)cc1", "note": "[I-54]", "IC50": 438},
      {"smiles": "N#Cc1cnn2c1CN(C(=O)CNC(=O)/C=C/c1ccc(C(F)(F)F)cc1)CC2", "note": "[I-190]", "IC50": 21},
      {"smiles": "COCC1Cn2ncnc2CN1C(=O)CNC(=O)/C=C/c1ccc(C(F)(F)F)cc1", "note": "(stereo not shown) [I-219]", "IC50": 262},
      {"smiles": "O=C(/C=C/c1ccc(C(F)(F)F)cc1)NCC(=O)N1CC[C@H](Cn2cccn2)C1", "note": "[I-213]", "IC50": 108},
      {"smiles": "CN1CCN(C(=O)CNC(=O)/C=C/c2ccc(-c3ccccc3)cc2)CC1", "note": "[I-103, (E)-N-[2-(4-methylpiperazin-1-yl)-2-oxoethyl]-3-(4-phenylphenyl) prop-2-enamide]", "IC50": 31},
      {"smiles": "CC(=O)N1CCN(C(=O)CNC(=O)/C=C/c2ccc(C(F)(F)F)cc2)CC1", "note": "[I-28]", "IC50": 978},
      {"smiles": "CN1CCN(C(=O)CNC(=O)/C=C/c2ccc(C(F)(F)F)cc2)CC1c1ccccc1", "note": "(stereo not shown) [I-13]", "IC50": 111},
      {"smiles": "CC(C)(O)c1cc2n(n1)CCN(C(=O)CNC(=O)/C=C/c1ccc(C(F)(F)F)cc1)C2", "note": "[I-129, (E)-N-[2-[2-(1-hydroxy-1-methylethyl)-6,7-dihydro-4H-pyrazolo [1,5-a]pyrazin-5-yl]-2-oxoethyl]-3-[4-(trifluoromethyl)phenyl]prop-2-enamide]", "IC50": 66},
      {"smiles": "CCNC(=O)N1CCN(C(=O)CNC(=O)/C=C/c2ccc(C(F)(F)F)cc2)CC1", "note": "[I-134, N-ethyl-4-[2-[[(E)-3-[4-(trifluoromethyl)phenyl]prop-2-enoyl]amino]acetyl]piperazine-1-carboxamide]", "IC50": 1240},
      {"smiles": "O=C(/C=C/c1ccc(C(F)(F)F)cc1)NCC(=O)N1CC[C@H](C(=O)O)C1", "note": "[I-125, (3S)-1-[2-[[(E)-3-[4-(trifluoromethyl)phenyl]prop-2-enoyl]amino]acetyl]pyrrolidine-3-carboxylic acid]", "IC50": 1620},
      {"smiles": "CCc1nnc(CN(CC2(F)CC2)C(=O)CNC(=O)/C=C/c2ccc(C(F)(F)F)cc2)o1", "note": "[I-211]", "IC50": 61},
      {"smiles": "COCCN(Cc1cccnn1)C(=O)CNC(=O)/C=C/c1ccc(C(F)(F)F)cc1", "note": "[I-59]", "IC50": 503},
      {"smiles": "O=C(/C=C/c1ccc(C(F)(F)F)cc1)NCC(=O)N1CCc2cc(C(=O)O)c(F)cc2C1", "note": "[I-262]", "IC50": 435},
      {"smiles": "CCC1Cn2ncnc2CN1C(=O)CNC(=O)/C=C/c1ccc(C(F)(F)F)cc1", "note": "(stereo not shown) [I-218]", "IC50": 355},
      {"smiles": "O=C(/C=C/c1ccc(C(F)(F)F)cc1)NCC(=O)N1CCn2nccc2C1", "note": "[I-93]", "IC50": 31},
      {"smiles": "CN1CCN(C(=O)CNC(=O)/C=C/c2ccc(C3CCC3)cc2)CC1", "note": "[I-116]", "IC50": 39},
      {"smiles": "O=C(/C=C/c1ccc(C(F)(F)F)cc1)NCC(=O)N1CCc2cn[nH]c2C1", "note": "[I-42]", "IC50": 73},
      {"smiles": "Cn1ncc2c1CCN(C(=O)CNC(=O)/C=C/c1ccc(C(F)(F)F)cc1)C2", "note": "[I-77]", "IC50": 70},
      {"smiles": "CC(C)N1CCN(C(=O)CNC(=O)/C=C/c2ccc(C(F)(F)F)cc2)CC1", "note": "[I-24]", "IC50": 58},
      {"smiles": "CC1Cn2ncnc2CN1C(=O)CNC(=O)/C=C/c1ccc(C(F)(F)F)cc1", "note": "(stereo not shown) [I-97]", "IC50": 397},
      {"smiles": "O=C(/C=C/c1ccc(C(F)(F)F)cc1)NCC(=O)N1CCn2c(n[nH]c2=O)C1", "note": "[I-38]", "IC50": 46},
      {"smiles": "O=C(/C=C/c1ccc(C(F)(F)F)cc1)NCC(=O)N1CCn2nc(C(=O)O)c(Br)c2C1", "note": "[I-269]", "IC50": 145},
      {"smiles": "O=C(/C=C/c1ccc(C(F)(F)F)cc1)NCC(=O)N1CCn2nc(C(=O)O)cc2C1", "note": "[I-273]", "IC50": 125},
      {"smiles": "CNC(=O)[C@@H]1C[C@H](n2cccn2)CN1C(=O)CNC(=O)/C=C/c1ccc(C(F)(F)F)cc1", "note": "[I-216]", "IC50": 161},
      {"smiles": "O=C(/C=C/c1ccc(C(F)(F)F)cc1)NCC(=O)N1CCc2cncnc2C1", "note": "[I-84]", "IC50": 54},
      {"smiles": "O=C(/C=C/c1ccc(C(F)(F)F)cc1)NCC(=O)N1CCCc2ncccc21", "note": "[I-185]", "IC50": 31},
      {"smiles": "CN1CCN(C(=O)CNC(=O)/C=C/c2ccc(OCC(F)(F)C(F)F)cc2)CC1", "note": "[I-109]", "IC50": 267},
      {"smiles": "COCCN(CC1CCOCC1)C(=O)CNC(=O)/C=C/c1ccc(C(F)(F)F)cc1", "note": "[I-49]", "IC50": 775},
      {"smiles": "O=C(/C=C/c1ccc(C(F)(F)F)cc1)NCC(=O)N1CCNC(=O)CC1", "note": "[I-15]", "IC50": 228},
      {"smiles": "CC1CCN(C(=O)CNC(=O)/C=C/c2ccc(C(F)(F)F)cc2)CC1", "note": "[I-26]", "IC50": 1440},
      {"smiles": "Cn1nnc2c1CCN(C(=O)CNC(=O)/C=C/c1ccc(C(F)(F)F)cc1)C2", "note": "[I-100]", "IC50": 79},
      {"smiles": "O=C(/C=C/c1ccc(C(F)(F)F)cc1)NCC(=O)N1CCn2nc(C(=O)O)c(C3CC3)c2C1", "note": "[I-268]", "IC50": 79},
      {"smiles": "COCC(C)N(Cc1ccccn1)C(=O)CNC(=O)/C=C/c1ccc(C(F)(F)F)cc1", "note": "(stereo not shown) [I-83]", "IC50": 78},
      {"smiles": "CNC(=O)[C@H]1CCN(C(=O)CNC(=O)/C=C/c2ccc(C(F)(F)F)cc2)C1", "note": "[I-144, (3S)-N-methyl-1-[2-[[(E)-3-[4-(trifluoromethyl)phenyl]prop-2-enoyl]amino]acetyl]pyrrolidine-3-carboxamide]", "IC50": 261},
      {"smiles": "CC(C)CNC(=O)C1CN(C(=O)CNC(=O)/C=C/c2ccc(C(F)(F)F)cc2)Cc2ccccc21", "note": "(stereo not shown) [I-278, N-(2-methylpropyl)-2-[2-[[(E)-3-[4-(trifluoromethyl)phenyl]prop-2-enoyl]amino]acetyl]-3,4-dihydro-1H-isoquinoline-4-carboxamide]", "IC50": 87},
      {"smiles": "NC(=O)c1cnn2c1CN(C(=O)CNC(=O)/C=C/c1ccc(C(F)(F)F)cc1)CC2", "note": "[I-224]", "IC50": 44},
      {"smiles": "O=C(/C=C/c1ccc(C(F)(F)F)cc1)NCC(=O)N1CCc2n[nH]c(=O)cc2C1", "note": "[I-81]", "IC50": 53},
      {"smiles": "O=C(/C=C/c1ccc(C(F)(F)F)cc1)NCC(=O)N1Cc2nc[nH]c2C1", "note": "[I-63]", "IC50": 164},
      {"smiles": "CC1CN(C)CCN1C(=O)CNC(=O)/C=C/c1ccc(C(F)(F)F)cc1", "note": "(stereo not shown) [I-119, (E)-N-[2-(2,4-dimethylpiperazin-1-yl)-2-oxoethyl]-3-[4-(trifluoromethyl)phenyl]prop-2-enamide]", "IC50": 30},
      {"smiles": "O=C(/C=C/c1ccc(S(F)(F)(F)(F)F)cc1)NCC(=O)N1CCn2nc(C(=O)O)cc2C1", "note": "[I-272]", "IC50": 141},
      {"smiles": "CCCCOc1ccc(/C=C/C(=O)NCC(=O)N2CCN(C)CC2)cc1", "note": "[I-113]", "IC50": 178},
      {"smiles": "O=C(/C=C/c1ccc(C(F)(F)F)cc1)NCC(=O)N1CCn2nc(C(=O)O)c(C3CCCCC3)c2C1", "note": "[I-266]", "IC50": 133}
    ]}
  ]
}
